Assays:
[1] = molecular target: Recombinant human Bcl-2 protein (Homo sapiens (Human), UniProt P10415); assay: Bcl-2 TR-FRET Assay; assay type: binding; settings: Bcl-2 wild type, TR-FRET; read-out: Biochemical assay (IC50, nM) Bcl-2 WT
In short: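 0.05 nM Bcl-2 pre-incubated 0.5 h at room temperature with 10-point compound dilutions (top final 1, 0.1, 0.02 or 0.01 uM) in 20 mM potassium phosphate pH 7.5, 50 mM NaCl, 1 mM EDTA, 0.05% Tween-20, 0.01% BSA; FITC-Bak peptide (0.5 nM) and anti-6His Tb cryptate added, 1 h. IC50 from four-parameter logistic fit.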

[2] = system: recombinant human Bcl-2-G101V protein; assay: Bcl-2-G101V TR-FRET Assay; assay type: binding; settings: ratio of biochemical IC50 Bcl-2 G101V / Bcl-2 WT
In short: (§1)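 Compounds were titrated at increasing concentrations against the Bcl-2-G101V–ligand interaction. TR-FRET signals were then read (ex 337 nm; em 490/520 nm). Percent inhibition was derived from the 490-to-520 nm ratio, and IC50 from a four-parameter logistic equation.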

[3] = molecular target: recombinant human Bcl-2-G101V protein (Homo sapiens (Human), UniProt P10415, G101V); assay: Bcl-2-G101V TR-FRET Assay; assay type: binding; settings: Bcl-2 G101V mutant, TR-FRET; read-out: Biochemical assay (IC50, nM) Bcl-2 G101V
In short: as §1

[4] = system: RS4;11 (BCL-2 dependent acute lymphoblastic leukemia cell line); assay: RS4;11 Cell Proliferation Assay; assay type: cell-based; settings: Homo sapiens, RS4-11, RS4;11 cells, read-out: Cellular proliferation assay (IC50, nM) RS4
In short: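 RS4;11 cells, 50,000 per well in RPMI-1640 with 10% FBS, treated 48 h at 37 °C with a 10-point dilution series topping at 1 μM. Viability read by CellTiter-Glo ATP luminescence; mean IC50 reported.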

[5] = system: BCL-2 G101V knock-in cell line H96 (derive from RS4;11); assay: Bcl 2-G101V Knock-In RS4;11 Cell Proliferation Assay; assay type: cell-based; settings: Homo sapiens, RS4;11 Bcl-2 G101V knock-in clone H96, 48 hrs, CellTiter-GLO, read-out: Cellular proliferation assay (IC50, nM) RS4
In short: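 H96, a CRISPR-generated RS4;11 clone carrying BCL2-G101V knock-in (WES/RNA-seq validated), seeded 50,000 per well and exposed 48 h at 37 °C to 10-point dilutions topping at 1 or 10 μM. Viability by CellTiter-Glo luminescence; mean IC50.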

SMILES	IC50 [1]	Ratio of Bcl-2 G101V/WT [2]	IC50 [3]	IC50 [4]	IC50 [5]
COc1cc(CN2CCN(C3CC4(CCN(c5ccc(C(=O)NS(=O)(=O)c6ccc(NC[C@H]7CC[C@](C)(O)CC7)c([N+](=O)[O-])c6)c(Oc6cnc7[nH]cc(F)c7c6)c5)CC4)C3)[C@H](c3ccccc3C(C)C)C2)ccc1C(C)C [Example 264, 2-((3-fluoro-1H-pyrrolo[2,3-b]pyridin-5-yl)oxy)-N-((4-((((1r,4r)-4-hydroxy-4-methylcyclohexyl)methyl)amino)-3-nitrophenyl)sulfonyl)-4-(2-((R)-4-(4-isopropyl-3-methoxybenzyl)-2-(2-isopropylphenyl)piperazin-1-yl)-7-azaspiro[3.5]nonan-7-yl)benzamide]	1.9 nM	3.8	7.3 nM	0.26 nM	0.78 nM
CCc1ccc(CN2CCN(C3CC4(CCN(c5ccc(C(=O)NS(=O)(=O)c6ccc(NC[C@H]7CC[C@](C)(O)CC7)c([N+](=O)[O-])c6)c(Oc6cnc7[nH]ccc7c6)c5)CC4)C3)[C@H](c3ccccc3C(C)C)C2)cc1OC [Example 265, 2-((1H-pyrrolo[2,5-b]pyridin-5-yl)oxy)-4-(2-((R)-4-(4-ethyl-3-methoxybenzyl)-2-(2-isopropylphenyl)piperazin-1-yl)-7-azaspiro[3.5]nonan-7-yl)-N-((4-((((1r,4r)-4-hydroxy-4-methylcyclohexyl)methyl)amino)-3-nitrophenyl)sulfonyl)benzamide]	0.66 nM	3	1.9 nM	0.15 nM	0.65 nM
CCc1ccc(CN2CCN(C3CC4(CCN(c5ccc(C(=O)NS(=O)(=O)c6ccc(NC[C@H]7CC[C@](C)(O)CC7)c([N+](=O)[O-])c6)c(Oc6cnc7[nH]cc(F)c7c6)c5)CC4)C3)[C@H](c3ccccc3C(C)C)C2)cc1OC [Example 266, 4-(2-((R)-4-(4-ethyl-3-methoxybenzyl)-2-(2-isopropylphenyl)piperazin-1-yl)-7-azaspiro[3.5]nonan-7-yl)-2-((3-fluoro-1H-pyrrolo[2,3-b]pyridin-5-yl)oxy)-N-((4-((((1r,4r)-4-hydroxy-4-methylcyclohexyl)methyl)amino)-3-nitrophenyl)sulfonyl) benzamide]	1.4 nM	3	4.1 nM	0.22 nM	0.66 nM
COc1cc(CN2CCN(C3CC4(C3)CN(c3ccc(C(=O)NS(=O)(=O)c5ccc(NC[C@H]6CC[C@](C)(O)CC6)c([N+](=O)[O-])c5)c(Oc5cnc6[nH]cc(F)c6c5)c3)C4)[C@H](c3ccccc3C(C)C)C2)ccc1C(C)C [Example 269, 2-((3-fluoro-1H-pyrrolo[2,3-b]pyridin-5-yl)oxy)-N-((4-((((1r,4r)-4-hydroxy-4-methylcyclohexyl)methyl)amino)-3-nitrophenyl)sulfonyl)-4-(6-((R)-4-(4-isopropyl-3-methoxybenzyl)-2-(2-isopropylphenyl)piperazin-1-yl)-2-azaspiro[3.3]heptan-2-yl) benzamide]	2.1 nM	2.4	4.9 nM	0.17 nM	0.41 nM
COc1cc(CN2CCN(C3CC4(C3)CN(c3ccc(C(=O)NS(=O)(=O)c5ccc(NC[C@H]6CC[C@](C)(O)CC6)c([N+](=O)[O-])c5)c(Oc5cnc6[nH]ccc6c5)c3)C4)[C@H](c3ccccc3C(C)C)C2)ccc1C(C)C [Example 270, 2-((1H-pyrrolo[2,3-b]pyridin-5-yl)oxy)-N-((4-((((1r,4r)-4-hydroxy-4-methylcyclohexyl)methyl)amino)-3-nitrophenyl)sulfonyl)-4-(6-((R)-4-(4-isopropyl-3-methoxybenzyl)-2-(2-isopropylphenyl)piperazin-1-yl)-2-azaspiro[3.3]heptan-2-yl) benzamide]	1.1 nM	2.6	2.9 nM	0.16 nM	0.64 nM
CCc1ccc(CN2CCN(C3CC4(C3)CN(c3ccc(C(=O)NS(=O)(=O)c5ccc(NC[C@H]6CC[C@](C)(O)CC6)c([N+](=O)[O-])c5)c(Oc5cnc6[nH]ccc6c5)c3)C4)[C@H](c3ccccc3C(C)C)C2)cc1OC [Example 271, 2-((1H-pyrrolo[2,3-b]pyridin-5-yl)oxy)-4-(6-((R)-4-(4-ethyl-3-methoxybenzyl)-2-(2-isopropylphenyl)piperazin-1-yl)-2-azaspiro[3.3]heptan-2-yl)-N-((4-((((1r,4r)-4-hydroxy-4-methylcyclohexyl)methyl)amino)-3-nitrophenyl)sulfonyl)benzamide]	0.47 nM	3.1	1.5 nM	0.11 nM	0.4 nM
COc1cc(CN2CCN(C3CC4(CCN(c5ccc(C(=O)NS(=O)(=O)c6ccc(NC[C@H]7CC[C@](C)(O)CC7)c([N+](=O)[O-])c6)c(Oc6cnc7[nH]ccc7c6)c5)CC4)C3)[C@H](c3ccccc3C(C)C)C2)ccc1C(F)(F)F [Example 277, 2-((1H-pyrrolo[2,3-b]pyridin-5-yl)oxy)-N-((4-((((1r,4r)-4-hydroxy-4-methylcyclohexyl)methyl)amino)-3-nitrophenyl)sulfonyl)-4-(2-((R)-2-(2-isopropylphenyl)-4-(3-methoxy-4-(trifluoromethyl)benzyl)piperazin-1-yl)-7azaspiro [3.5]nonan-7-yl)benzamide]	1.4 nM	2.2	3.2 nM	0.22 nM	1.9 nM
COc1cc(CN2CCN(C3CC4(CCN(c5ccc(C(=O)NS(=O)(=O)c6ccc(NC[C@H]7CC[C@](C)(O)CC7)c([N+](=O)[O-])c6)c(Oc6cnc7[nH]cc(F)c7c6)c5)CC4)C3)[C@H](c3ccccc3C(C)C)C2)ccc1C(F)F [Example 287]	0.87 nM	2.6	2.3 nM	0.16 nM	0.55 nM
COc1cc(CN2CCN(C3CC4(C3)CN(c3ccc(C(=O)NS(=O)(=O)c5ccc(NC[C@H]6CC[C@](C)(O)CC6)c([N+](=O)[O-])c5)c(Oc5cnc6[nH]ccc6c5)c3)C4)[C@H](c3ccccc3C(C)C)C2)ccc1C(F)(F)F [Example 290, 2-((1H-pyrrolo[2,3-b]pyridin-5-yl)oxy)-N-((4-((((1r,4r)-4-hydroxy-4-methylcyclohexyl)methyl)amino)-3-nitrophenyl)sulfonyl)-4-(6-((R)-2-(2-isopropylphenyl)-4-(3-methoxy-4-(trifluoromethyl)benzyl)piperazin-1-yl)-2-azaspiro [3.3]heptan-2-yl)benzamide]	0.9 nM	2.5	2.2 nM	0.2 nM	1.5 nM
CC(C)c1ccccc1[C@@H]1CN(Cc2ccc3c(c2)OCC3)CCN1C1CC2(C1)CN(c1ccc(C(=O)NS(=O)(=O)c3ccc(NC[C@H]4CC[C@](C)(O)CC4)c([N+](=O)[O-])c3)c(Oc3cnc4[nH]cc(F)c4c3)c1)C2 [Example 297, 4-(6-((R)-4-((2,3-dihydrobenzofuran-6-yl)methyl)-2-(2-isopropylphenyl)piperazin-1-yl)-2-azaspiro[3.3]heptan-2-yl)-2-((3-fluoro-1H-pyrrolo[2,3-b]pyridin-5-yl)oxy)-N-((4-((((1r,4r)-4-hydroxy-4-methylcyclohexyl)methyl)amino)-3-nitrophenyl)sulfonyl)benzamide]	0.13 nM	3.0	0.4 nM	0.25 nM	1.16 nM
